In ChEMBL document CHEMBL1157323, “Chloriolide, a 12-membered macrolide from Chloridium virescens var. chlamydosporum (NRRL 37636)” (J Nat Prod, 2006):
Activity calls are given as the source filed them.

Tests used:
Assay type in all cases: functional, organism-based
Aspergillus flavus = test: Antifungal activity against Aspergillus flavus NRRL 6541 at 200 ug/disk by standard disk assay
Fusarium verticillioides = test: Antifungal activity against Fusarium verticillioides NRRL 25457 at 200 ug/disk by standard disk assay
Staphylococcus aureus = test: Antibacterial activity against Staphylococcus aureus ATCC 29213
Escherichia coli = test: Antibacterial activity against Escherichia coli ATCC 25922
Bacillus subtilis = test: Antibacterial activity against Bacillus subtilis ATCC 6051

Measured: Activity

C[C@H]1CCC[C@@H](O)/C=C\[C@H](O)/C=C/C(=O)O1
inactive: all assays above
